Measurements reported in patent EP4289427A1, “DIHYDRO[1,8]NAPHTHYRIDIN-7-ONE AND PYRIDO[3,2-B][1,4]OXAZIN-3-ONE FOR USE IN TREATING CANCER, AND METASTASES IN PARTICULAR” (Anagenesis Biotechnologies, priority 2022, dated 2023).

Columns and labels:
RD cells = assay: Cytotoxicity assay (CellTiter-Glo 2.0) on RD cells; format: cell-based, Human; settings: for IC50: Homo sapiens; on Cytotoxicity: test concentration or dose not given here
Outline: (§1)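 Cells were seeded on day 0 in their own growth medium, then exposed to compounds for a line-dependent period. CellTiter-Glo 2.0 was added and left 10 min in the dark at room temperature, and luminescence from cellular ATP gave viability and relative IC50.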

4T1 cells = assay: Cytotoxicity assay (CellTiter-Glo 2.0) on 4T1 cells; format: cell-based, Mouse; settings: incubation 2 days; for IC50: Mus musculus, 48 h; on Cytotoxicity: test concentration or dose not given here
Outline: as §1

MDA-MB-231 cells = assay: Cytotoxicity assay (CellTiter-Glo 2.0) on MDA-MB-231 cells; format: cell-based, Human; settings: incubation 3 days; for IC50: Homo sapiens, 72 h; on Cytotoxicity: test concentration or dose not given here
Outline: as §1

EoL-1 cells = assay: Cytotoxicity assay (CellTiter-Glo 2.0) on EoL-1 cells; format: cell-based, Human; settings: incubation 1 day; for IC50: Homo sapiens, EOL1, 24 h; on Cytotoxicity: test concentration or dose not given here
Outline: as §1

HUVECs = assay: Tube formation assay (anti-angiogenic activity); format: cell-based, human; settings: incubation 16 to 18 hours; for IC50: Homo sapiens, HUVEC; on Angiogenesis inhibition: test concentration or dose not given here
Outline: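 HUVECs plated at 5000 cells/well on reduced growth factor basement membrane matrix, then exposed to compounds for 16 to 18 hours at 37°C. Cells stained with calcein-AM; tube networks imaged by confocal fluorescence microscopy and quantified.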

SMILES | Cytotoxicity (RD cells; 2 day-treatment) | Cytotoxicity (RD cells; 4 day-treatment) | IC50 (RD cells; 48 h, 2 day-treatment) [nM] | IC50 (RD cells; 96 h, 4 day-treatment) [nM] | IC50 (4T1 cells) [nM] | Cytotoxicity (4T1 cells) | IC50 (MDA-MB-231 cells) [nM] | Cytotoxicity (MDA-MB-231 cells) | IC50 (EoL-1 cells) [nM] | Cytotoxicity (EoL-1 cells) | IC50 (HUVECs) [nM] | Angiogenesis inhibition (HUVECs)
CSc1cc(Oc2ccnc3c2OCC(=O)N3)ccc1NC(=O)Nc1cc(C(C)(C)C)nn1-c1cccc(CN(C)C)c1 [Compound 041, 1-[5-tert-butyl-2-[3-(dimethylaminomethyl)phenyl]pyrazol-3-yl]-3-[2-methylsulfanyl-4-[(3-oxo-4H-pyrido[3,2-b][1,4]oxazin-8-yl)oxy]phenyl]urea] | +++ (cytotoxicity ≥ 85%) | +++ (cytotoxicity ≥ 85%) | 1000 to 5000 | 1000 to 5000 | < 1000 | +++ (cytotoxicity ≥ 85%) | 1000 to 5000 | +++ (cytotoxicity ≥ 85%) | 1 to 10 | +++ (cytotoxicity ≥ 85%) | < 100 | +++ (angiogenesis inhibition ≥ 80%)
CC(C)(C)c1cc(NC(=O)Nc2ccc(Oc3ccnc4c3OCC(=O)N4)cc2C(F)(F)F)on1 [Compound 037, 1-(3-tert-butylisoxazol-5-yl)-3-[4-[(3-oxo-4H-pyrido[3,2-b][1,4]oxazin-8-yl)oxy]-2-(trifluoromethyl)phenyl]urea] | ++ (50% ≤ cytotoxicity < 85%) | ++ (50% ≤ cytotoxicity < 85%) | 5000 to 10000 | 1000 to 5000 | 1000 to 5000 | +++ (cytotoxicity ≥ 85%) | 1000 to 5000 | ++ (50% ≤ cytotoxicity < 85%) | 1 to 10 | +++ (cytotoxicity ≥ 85%) | 100 to 500 | ++ (80% > angiogenesis inhibition ≥ 50%)
CSc1cc(Oc2ccnc3c2OCC(=O)N3)ccc1NC(=O)Nc1cc(C(C)(C)C)nn1-c1ccc(F)cc1F [Compound 031, 1-[5-tert-butyl-2-(2,4-difluorophenyl)pyrazol-3-yl]-3-[2-methylsulfanyl-4-[(3-oxo-4H-pyrido[3,2-b][1,4]oxazin-8-yl)oxy]phenyl]urea] | ++ (50% ≤ cytotoxicity < 85%) | ++ (50% ≤ cytotoxicity < 85%) | 1000 to 5000 | 1000 to 5000 | 1000 to 5000 | +++ (cytotoxicity ≥ 85%) | 1000 to 5000 | ++ (50% ≤ cytotoxicity < 85%) | 1 to 10 | +++ (cytotoxicity ≥ 85%) | 100 to 500 | +++ (angiogenesis inhibition ≥ 80%)
CN(C)Cc1ccc(-n2nc(C(C)(C)C)cc2NC(=O)Nc2ccc(Oc3ccnc4c3CCC(=O)N4)cc2C(F)(F)F)cc1 [Compound 034, 1-[5-tert-butyl-2-[4-[(dimethylamino)methyl]phenyl]pyrazol-3-yl]-3-[4-[(7-oxo-6,8-dihydro-5H-1,8-naphthyridin-4-yl)oxy]-2-(trifluoromethyl)phenyl]urea] | +++ (cytotoxicity ≥ 85%) | +++ (cytotoxicity ≥ 85%) | 1000 to 5000 | 1000 to 5000 | < 1000 | +++ (cytotoxicity ≥ 85%) | 1000 to 5000 | +++ (cytotoxicity ≥ 85%) | 1 to 10 | ++ (50% ≤ cytotoxicity < 85%) | < 100 | +++ (angiogenesis inhibition ≥ 80%)
CSc1cc(Oc2ccnc3c2OCC(=O)N3)ccc1NC(=O)Nc1cc(C(C)(C)C)nn1-c1cccc(F)c1 [Compound 012, 1-[5-tert-butyl-2-(3-fluorophenyl)pyrazol-3-yl]-3-[2-methylsulfanyl-4-[(3-oxo-4H-pyrido[3,2-b][1,4]oxazin-8-yl)oxy]phenyl]urea] | ++ (50% ≤ cytotoxicity < 85%) | ++ (50% ≤ cytotoxicity < 85%) | 1000 to 5000 | 5000 to 10000 | 1000 to 5000 | +++ (cytotoxicity ≥ 85%) | 1000 to 5000 | ++ (50% ≤ cytotoxicity < 85%) | 1 to 10 | ++ (50% ≤ cytotoxicity < 85%) | < 100 | +++ (angiogenesis inhibition ≥ 80%)
CSc1cc(Oc2ccnc3c2OCC(=O)N3)ccc1NC(=O)Nc1cc(C(C)(C)C)nn1-c1ccc(CCN(C)C)cc1 [Compound 051, 1-[5-tert-butyl-2-[4-[2-(dimethylamino)ethyl]phenyl]pyrazol-3-yl]-3-[2-methylsulfanyl-4-[(3-oxo-4H-pyrido[3,2-b][1,4]oxazin-8-yl)oxy]phenyl]urea] | +++ (cytotoxicity ≥ 85%) | +++ (cytotoxicity ≥ 85%) | 1000 to 5000 | 1000 to 5000 | 1000 to 5000 | +++ (cytotoxicity ≥ 85%) | 1000 to 5000 | +++ (cytotoxicity ≥ 85%) | 1 to 10 | +++ (cytotoxicity ≥ 85%) | < 100 | +++ (angiogenesis inhibition ≥ 80%)
CN(C)Cc1cccc(-n2nc(C(C)(C)C)cc2NC(=O)Nc2ccc(Oc3ccnc4c3OCC(=O)N4)cc2C(F)(F)F)c1 [Compound 048, 1-[5-tert-butyl-2-[3-(dimethylaminomethyl)phenyl]pyrazol-3-yl]-3-[4-[(3-oxo-4H-pyrido[3,2-b][1,4]oxazin-8-yl)oxy]-2-(trifluoromethyl)phenyl]urea] | ++ (50% ≤ cytotoxicity < 85%) | +++ (cytotoxicity ≥ 85%) | 5000 to 10000 | 1000 to 5000 | 1000 to 5000 | +++ (cytotoxicity ≥ 85%) | 1000 to 5000 | ++ (50% ≤ cytotoxicity < 85%) | 1 to 10 | ++ (50% ≤ cytotoxicity < 85%) | 100 to 500 | +++ (angiogenesis inhibition ≥ 80%)
CN(C)Cc1cccc(-n2nc(C(C)(C)C)cc2NC(=O)Nc2ccc(Oc3ccnc4c3CCC(=O)N4)cc2C(F)(F)F)c1 [Compound 028, 1-[5-tert-butyl-2-[3-[(dimethylamino)methyl]phenyl]pyrazol-3-yl]-3-[4-[(7-oxo-6,8-dihydro-5H-1,8-naphthyridin-4-yl)oxy]-2-(trifluoromethyl)phenyl]urea] | ++ (50% ≤ cytotoxicity < 85%) | +++ (cytotoxicity ≥ 85%) | 1000 to 5000 | 1000 to 5000 | < 1000 | +++ (cytotoxicity ≥ 85%) | 1000 to 5000 | +++ (cytotoxicity ≥ 85%) | 1 to 10 | ++ (50% ≤ cytotoxicity < 85%) | < 100 | +++ (angiogenesis inhibition ≥ 80%)
CSc1cc(Oc2ccnc3c2OCC(=O)N3)ccc1NC(=O)Nc1cc(C(C)(C)C)nn1-c1ccc(C)nc1 [Compound 019, 1-[5-tert-butyl-2-(6-methyl-3-pyridyl)pyrazol-3-yl]-3-[2-methylsulfanyl-4-[(3-oxo-4H-pyrido[3,2-b][1,4]oxazin-8-yl)oxy]phenyl]urea] | ++ (50% ≤ cytotoxicity < 85%) | ++ (50% ≤ cytotoxicity < 85%) | 1000 to 5000 | 1000 to 5000 | 1000 to 5000 | +++ (cytotoxicity ≥ 85%) | 1000 to 5000 | ++ (50% ≤ cytotoxicity < 85%) | 1 to 10 | +++ (cytotoxicity ≥ 85%) | < 100 | +++ (angiogenesis inhibition ≥ 80%)
